Measurements reported in the supplement of paper PMC10307832.

Assays:
Experiment in all cases: relative viability (nuclei count vs DMSO), 5 days (fraction); higher = more cells survive
NCI-H650 = system: NCI-H650
Procedure, shortened: (§1)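 Lung cancer cell lines, seeded in 1536-well plates, were treated the following day by pin tool with a single drug or with five library-drug doses (not always all listed) in √10 steps on top of a fixed anchor-drug dose. Cells were fixed and nuclei stained in one step after 5 days, and nuclei were counted. Relative viability is the nuclei count for treated wells divided by that for vehicle wells, reported as medians of duplicate plates.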

NCI-H2009 = system: NCI-H2009
Procedure, shortened: as §1

NCI-H1792 = system: NCI-H1792
Procedure, shortened: as §1

SK-LU-1 = system: SK-LU-1
Procedure, shortened: as §1

NCI-H1993 = system: NCI-H1993
Procedure, shortened: as §1

LC-2-ad = system: LC-2-ad
Procedure, shortened: as §1

HCC-15 = system: HCC-15
Procedure, shortened: as §1

NCI-H647 = system: NCI-H647
Procedure, shortened: as §1

RERF-LC-KJ = system: RERF-LC-KJ
Procedure, shortened: as §1

LCLC-97TM1 = system: LCLC-97TM1
Procedure, shortened: as §1

NCI-H1755 = system: NCI-H1755
Procedure, shortened: as §1

NCI-H661 = system: NCI-H661
Procedure, shortened: as §1

NCI-H2085 = system: NCI-H2085
Procedure, shortened: as §1

SK-MES-1 = system: SK-MES-1
Procedure, shortened: as §1

NCI-H23 = system: NCI-H23
Procedure, shortened: as §1

NCI-H520 = system: NCI-H520
Procedure, shortened: as §1

BEN = system: BEN
Procedure, shortened: as §1

A-427 = system: A-427
Procedure, shortened: as §1

PC-3 [JPC-3] = system: PC-3 [JPC-3]
Procedure, shortened: as §1

NCI-H1651 = system: NCI-H1651
Procedure, shortened: as §1

NCI-H1650 = system: NCI-H1650
Procedure, shortened: as §1

NCI-H727 = system: NCI-H727
Procedure, shortened: as §1

NCI-H838 = system: NCI-H838
Procedure, shortened: as §1

H3255 = system: H3255
Procedure, shortened: as §1

Q: Which results are given for `Nc1cccc2c1CN(C1CCC(=O)NC1=O)C2=O` (stereo unspecified) [Lenalidomide] + C[C@@H](Oc1cc(-c2cnn(C3CCNCC3)c2)cnc1N)c1c(Cl)ccc(F)c1Cl [Crizotinib] (partner 1 µM)?
A: relative viability (NCI-H650; first compound 0.253 µM): 0.755; relative viability (NCI-H650; first compound 2.53 µM): 0.863; relative viability (NCI-H650; first compound 8 µM): 0.809; relative viability (NCI-H2009; first compound 0.253 µM): 1.07; relative viability (NCI-H2009; first compound 0.8 µM): 1.03; relative viability (NCI-H2009; first compound 2.53 µM): 1.12; relative viability (NCI-H2009; first compound 8 µM): 1.1; relative viability (NCI-H1792; first compound 0.253 µM): 1.04; relative viability (NCI-H1792; first compound 0.8 µM): 0.795; relative viability (NCI-H1792; first compound 2.53 µM): 1.12; relative viability (NCI-H1792; first compound 8 µM): 0.96; relative viability (SK-LU-1; first compound 0.253 µM): 1.05; relative viability (SK-LU-1; first compound 0.8 µM): 1.06; relative viability (SK-LU-1; first compound 2.53 µM): 0.867; relative viability (SK-LU-1; first compound 8 µM): 0.852; relative viability (NCI-H1993; first compound 0.253 µM): 0.626; relative viability (NCI-H1993; first compound 0.8 µM): 0.852; relative viability (NCI-H1993; first compound 2.53 µM): 0.761; relative viability (NCI-H1993; first compound 8 µM): 0.777; relative viability (LC-2-ad; first compound 0.253 µM): 0.516; relative viability (LC-2-ad; first compound 0.8 µM): 0.43; relative viability (LC-2-ad; first compound 2.53 µM): 0.547; relative viability (LC-2-ad; first compound 8 µM): 0.511; relative viability (HCC-15; first compound 0.253 µM): 0.809; relative viability (HCC-15; first compound 2.53 µM): 1.03; relative viability (HCC-15; first compound 8 µM): 0.799; relative viability (NCI-H647; first compound 0.253 µM): 1.08; relative viability (NCI-H647; first compound 0.8 µM): 1.04; relative viability (NCI-H647; first compound 2.53 µM): 1.22; relative viability (NCI-H647; first compound 8 µM): 1.14; relative viability (RERF-LC-KJ; first compound 0.253 µM): 0.8; relative viability (RERF-LC-KJ; first compound 0.8 µM): 0.778; relative viability (RERF-LC-KJ; first compound 2.53 µM): 0.827; relative viability (RERF-LC-KJ; first compound 8 µM): 0.835; relative viability (LCLC-97TM1; first compound 0.8 µM): 0.511; relative viability (LCLC-97TM1; first compound 2.53 µM): 0.463; relative viability (LCLC-97TM1; first compound 8 µM): 0.305; relative viability (NCI-H1755; first compound 0.253 µM): 0.828; relative viability (NCI-H1755; first compound 0.8 µM): 0.85; relative viability (NCI-H1755; first compound 2.53 µM): 0.9; relative viability (NCI-H1755; first compound 8 µM): 0.821; relative viability (NCI-H661; first compound 0.253 µM): 0.972; relative viability (NCI-H661; first compound 0.8 µM): 0.898; relative viability (NCI-H661; first compound 2.53 µM): 0.905; relative viability (NCI-H661; first compound 8 µM): 0.973; relative viability (NCI-H2085; first compound 0.253 µM): 0.866; relative viability (NCI-H2085; first compound 0.8 µM): 0.742; relative viability (NCI-H2085; first compound 2.53 µM): 0.97; relative viability (NCI-H2085; first compound 8 µM): 0.926; relative viability (SK-MES-1; first compound 0.253 µM): 1; relative viability (SK-MES-1; first compound 0.8 µM): 1.04; relative viability (SK-MES-1; first compound 2.53 µM): 0.972; relative viability (SK-MES-1; first compound 8 µM): 0.974; relative viability (NCI-H23; first compound 0.253 µM): 0.521; relative viability (NCI-H23; first compound 0.8 µM): 0.439; relative viability (NCI-H23; first compound 2.53 µM): 0.605; relative viability (NCI-H23; first compound 8 µM): 0.62; relative viability (NCI-H520; first compound 0.253 µM): 0.794; relative viability (NCI-H520; first compound 0.8 µM): 0.777; relative viability (NCI-H520; first compound 2.53 µM): 0.857; relative viability (NCI-H520; first compound 8 µM): 0.752; relative viability (BEN; first compound 0.253 µM): 1.04; relative viability (BEN; first compound 0.8 µM): 0.642; relative viability (BEN; first compound 2.53 µM): 1.07; relative viability (BEN; first compound 8 µM): 0.85; relative viability (A-427; first compound 0.253 µM): 0.833; relative viability (A-427; first compound 2.53 µM): 0.891; relative viability (A-427; first compound 8 µM): 0.903; relative viability (PC-3 [JPC-3]; first compound 0.253 µM): 0.933; relative viability (PC-3 [JPC-3]; first compound 0.8 µM): 0.936; relative viability (PC-3 [JPC-3]; first compound 2.53 µM): 1.02; relative viability (PC-3 [JPC-3]; first compound 8 µM): 1.09; relative viability (NCI-H1651; first compound 0.253 µM): 0.875; relative viability (NCI-H1651; first compound 0.8 µM): 0.884; relative viability (NCI-H1651; first compound 2.53 µM): 0.865; relative viability (NCI-H1651; first compound 8 µM): 0.861; relative viability (NCI-H1650; first compound 0.253 µM): 0.922; relative viability (NCI-H1650; first compound 0.8 µM): 1.03; relative viability (NCI-H1650; first compound 2.53 µM): 1.11; relative viability (NCI-H1650; first compound 8 µM): 1.17; relative viability (NCI-H727; first compound 0.253 µM): 0.83; relative viability (NCI-H727; first compound 2.53 µM): 0.894; relative viability (NCI-H727; first compound 8 µM): 0.952; relative viability (NCI-H838; first compound 0.253 µM): 0.847; relative viability (NCI-H838; first compound 0.8 µM): 0.954; relative viability (NCI-H838; first compound 2.53 µM): 0.914; relative viability (NCI-H838; first compound 8 µM): 0.913; relative viability (H3255; first compound 0.253 µM): 0.79; relative viability (H3255; first compound 0.8 µM): 0.885; relative viability (H3255; first compound 2.53 µM): 0.872; relative viability (H3255; first compound 8 µM): 0.946
